Square brackets hold non-standard residues; d marks the D form. Peptide text beside a SMILES is read from it. * marks the point of attachment. PEG10 = NCCOCCOCCOCCOCCOCCOCCOCCOCCOCCOCCC(=O)O; Palmitoyl = CCCCCCCCCCCCCCCC(=O)*
Experiments:
[1] = Resuspension of purified PA in water; format: physicochemical; conditions: purified molecule in water
Protocol: Solubilization and Heat Treatment: PA powders were resuspended to 10 mM in water for experiments at pH 7, in 10 mM hydrochloric acid for pH 2 and 10 mM sodium hydroxide for pH 12. After resuspension, 1 M sodium hydroxide or 1 M hydrogen chloride were added to achieve the desired pH. To co-assemble PA molecules, PA solutions were mixed volumetrically, bath sonicated for 1 hour and then left on the bench to age for at least 2 hours. A solution of 150 mM NaCl was added to all samples to achieve a final NaCl concentration of 30 mM. All samples were heat treated at 80° C. for 30 minutes followed by gradual cooling by 1° C. per minute to 25° C.
To produce PA filaments without ionic charge, a short PEG chain was substituted for the ionizable amino acids typically included in PA molecules to maintain solubility of the PA in an aqueous environment. To form an uncharged PA filament, the sequence N-palmitoyl-VVAA was chosen as the aliphatic tail and hydrogen bonding peptide. As the hydrophilic domain, a 10-mer PEG amino acid was selected, which was hypothesized to be long enough to solubilize the PA while limiting steric repulsion among assembled molecules (PA1, FIG. 2A). The PA was synthesized by coupling the PEG amino acid to a rink-amide resin and completing the peptide using standard Fmoc solid phase peptide synthesis, leaving an uncharged amide group after cleavage from the resin. […]

[2] = Cytotoxicity (calcein / ethidium homodimer live-dead staining); format: cell-based; conditions: human, nHLF cultures, 36 hours culture; for viability at 36 h: normal human lung fibroblasts (nHLF), up to 100 μM PA, read-out: cells staining positive for calcein (percent viable cells)
Protocol: Cytotoxicity: Normal Human Lung Fibroblasts were obtained from Lonza and maintained in growth medium consisting of DMEM with 10% fetal bovine serum (FBS) and 1% penicillin/streptomycin. Cells (passage 5) were tryspinized and resuspended in media containing 2% FBS and 150 μl of the cell suspension was added to each well of a 96 well microplate for a total of 2,500 cells per well. After 2 hours attachment, 50 μl PA solutions diluted in PBS to 4 μM, 20 μM, 100 μM, or 400 μM were added to each well. After 36 hours culture, the media was removed and replaced with a solution of 2 μM calcein and 4 μM ethidium homodimer in PBS. After 30 minutes, cells were imaged using a Cytation 3 microplate reader. Live and Dead cells were counted using the MATLAB image Processing Toolbox to determine viability.

[3] = test system: Human mesenchymal stem cells; test: Alkaline phosphatase (ALP) activity, osteogenic differentiation; format: cell-based; conditions: human MSCs, one week
Protocol: Alkaline Phosphatase Activity: Human mesenchymal stem cells were obtained from Lonza and maintained in Mesenchymal Stem Cell Growth Media (Lonza). Cells were used for experiments prior to passage 6. Cells were trypsinized and resuspended in growth media containing high glucose DMEM supplemented with 10% FBS and 1% penicillin/streptomycin and 50 mg/L sodium ascorbate. 500 μl of the cell suspension was placed in each well of a 24 well plate and incubated for 24 hours. Media was removed and replaced with 540 μl of growth media or osteogenic media containing low glucose DMEM supplemented with 10% FBS, 50 mg/L sodium ascorbate 10 mM 3-glycerophosphate, and 100 nM dexamethasone. 60 μl of a 10 times concentrated PA solution in PBS was then added to each well. Every 3-4 days, media was replaced by removing 300 μl media and adding 270 μl growth media or osteogenic media and 30 μl of the 10 times concentrated PA solution in PBS. Alkaline phosphatase (ALP) activity was determined using the SensoLyte pNPP ALP Assay Kit (Anaspec, Fremont, CA) according to the manufacturer's instructions. […] The supernatant was mixed with the assay's detection buffer in a microplate and the optical absorbance was read after a four-hour incubation using a Cytation 3 microplate reader. […]

[4] = Zeta potential of PA solutions; format: physicochemical; conditions: for surface charge (zeta-potential), sign: neutral pH
Protocol: Zeta potential: Heat-treated PA solutions were diluted 20 times in 30 mM NaCl with 10 mM HCl, 30 mM NaCl, or 30 mM NaCl with 10 mM NaOH for pH 2, pH 7, and pH 12 respectively. For each PA, three separate samples were prepared at each pH. Samples were loaded in a disposable folded capillary cell and zeta-potential was measured at 25° C. using a Zetasizer Nano ZS (Malvern Instruments, Malvern, UK). The average of the three measurements for each sample was plotted.

[5] = Nile red assay of aggregation; format: physicochemical; conditions: buffers of 0 mM, 15 mM and 150 mM NaCl
Protocol: Nile Red Assay: Following heat treatment, PA solutions were serially diluted in water (0 mM NaCl), or a buffer of 15 mM NaCl, or 150 mM NaCl. A solution of 100 μM Nile red was added to the PA solutions to one thousandth the total volume and incubated for 1 hour. The fluorescence spectrum was read from 600 nm to 700 nm using a BioTek Cytation 3 microplate reader using 560 nm excitation and the fluorescence shift was determined by subtracting the maximum […] wavelength for each sample from that of the dye solution diluted in each buffer alone.

Row | Compound | viability at 36 h [2] | surface charge (zeta-potential), sign [4] | aggregation as indicated by redshift in Nile red fluorescence, dependence on ionic strength [5] | also measured
1 | CCCCCCCCCCCCCCCC(=O)N[C@H](C(=O)N[C@H](C(=O)N[C@@H](C)C(=O)N[C@@H](C)C(=O)NCCOCCOCCOCCOCCOCCOCCOCCOCCOCCOCCC(N)=O)C(C)C)C(C)C [PA1] (Palmitoyl-VVAA[PEG10]-NH2) | > 85% | – | – | solubility in water (resuspension) [1]: readily resuspended in water
2 | CCCCCCCCCCCCCCCC(=O)N[C@H](C(=O)N[C@H](C(=O)N[C@@H](C)C(=O)N[C@@H](C)C(=O)N[C@@H](CCC(=O)O)C(=O)N[C@@H](CCC(=O)O)C(N)=O)C(C)C)C(C)C [PA2] (Palmitoyl-VVAAEE-NH2) | > 85% | negatively | depended on ionic strength of the buffer | ALP activity (osteogenic differentiation) in growth media ([3]; growth media, various PA concentrations): increased with increasing PA2 concentration; ALP activity (osteogenic differentiation) in osteogenic media ([3]; osteogenic media with dexamethasone and β-glycerophosphate): did not affect differentiation
3 | CCCCCCCCCCCCCCCC(=O)N[C@H](C(=O)N[C@H](C(=O)N[C@@H](C)C(=O)N[C@@H](C)C(=O)N[C@@H](CCCCN)C(=O)N[C@@H](CCCCN)C(N)=O)C(C)C)C(C)C [PA3] (Palmitoyl-VVAAKK-NH2) | – | positively charged | less dependent on ionic strength than PA2 | EC50 at 36 h ([2]; Normal Human Lung Fibroblasts (nHLF)): 25 ± 4 µM
4 | N-palmitoyl-VVAAEE-PEG10 [PA4] | – | – | – | Zeta-potential (surface charge) ([4]; pH 2): ~0 mV
5 | N-palmitoyl-VVAAKK-PEGio [PA5] | – | – | – | Zeta-potential (surface charge) ([4]; pH 12): ~0 mV
